Among the data in patent publication US6793925B2 (priority 1999, dated 2004) are MIC values, retold here.

In general, MIC refers to the smallest concentration in the dilution series that meets the test's criterion for growth inhibition. The low end stands for greater potency, the high end for weaker potency.

Molecules are shown by their SMILES. Converted amounts (≈) assume the structure as drawn. Bridge positions count the residues as written; N and C are the ends. Square brackets hold non-standard residues; d marks the D form. Peptide text beside a SMILES is read from it. * marks the point of attachment. Asp(3S-OH) = N[C@H](C(=O)O)[C@H](O)C(=O)O; Thr(4-Cl) = N[C@H](C(=O)O)[C@H](O)CCl; X1 = CCCCCCCCCCCC(O)C(O)CC(=O)*; aThr = C[C@H](O)[C@H](N)C(=O)O; X2 = CCCCCCCCCC(O)CC(=O)*; dDab = NCC[C@@H](N)C(=O)O; Dab = NCC[C@H](N)C(=O)O; Dhb = C/C=C(\N)C(=O)O

What all share (type): cell-based
Holding throughout (details): complete inhibition of growth, Sabourauds and dextrose broth, 35° C., 48 hr, highest concentration 20 μg/ml

One experiment relates to Aspergillus fumigatus. Put plainly: microtiter broth dilution antifungal assay (MIC). On the procedure:
(§1) The presence or amount of a pseudomycin or mixture of pseudomycins can be determined by measuring the antifungal activity of a preparation. Antifungal activity was determined in vitro by obtaining the minimum inhibitory concentration (MIC) of the preparation using a standard agar dilution test or a disc-diffusion test. A preparation of one or more pseudomycins can be an extract of a cell culture, or a more purified mixture. A typical fungus employed in testing antifungal activity is C. albicans. Antifungal activity was considered significant when the test preparation caused 10-12 mm diameter zones of inhibition on Candida albicans x657 seeded agar plates.
(§2) The antifungal studies were conducted using a microtiter broth dilution assay according to National Committee for Clinical Laboratory Standards guidelines in 96 well microtiter plates. Sabourauds and dextrose broth was adjusted to contain 2.5×10^4 conida/ml. Test compound was dissolved in water and tested in two-fold dilutions starting with the highest concentration of 20 μg/ml. Plates were incubated at 35° C. for 48 hr.
On the technique in general: Dilution methods test growth across graded concentrations, often in twofold steps.

The test system of another experiment is C. parapsilosis. Put plainly: microtiter broth dilution antifungal assay (MIC). On the procedure:
as §1, §2

In the next experiment the test system is Candida albicans. Put plainly: microtiter broth dilution antifungal assay (MIC). On the procedure:
as §1, §2

A further experiment has as its system Cryptococcus neoformans. Put plainly: microtiter broth dilution antifungal assay (MIC). On the procedure: as §1, §2
Another experiment relates to Histoplasma capsulatum.

`C/C=C1\NC(=O)[C@H]([C@H](C)O)NC(=O)[C@H](CCN)NC(=O)[C@H](CCCCN)NC(=O)[C@H](CC(=O)O)NC(=O)[C@@H](CCN)NC(=O)[C@@H](NC(=O)CC(O)C(O)CCCCCCCCCCC)COC(=O)[C@H]([C@H](O)CCl)NC(=O)[C@H]([C@H](O)C(=O)O)NC1=O` (stereo partly drawn) [Pseudomycin A′, pseudomycin A′] (X1-S[dDab]DK[Dab][aThr][Dhb][Asp(3S-OH)][Thr(4-Cl)]; ester 1-C): the MIC with Aspergillus fumigatus was greater than 20 µg/mL; against C. parapsilosis, 5.0 µg/mL (≈ 4.04 µM); against Candida albicans, 2.5 µg/mL (≈ 2.02 µM); with Cryptococcus neoformans it was 1.25 µg/mL (≈ 1.01 µM); in the experiment on Histoplasma capsulatum, 5.0 µg/mL (≈ 4.04 µM).
In the case of `C/C=C1\NC(=O)[C@H]([C@H](C)O)NC(=O)[C@H](CCN)NC(=O)[C@H](CCCCN)NC(=O)[C@H](CC(=O)O)NC(=O)[C@@H](CCN)NC(=O)[C@@H](NC(=O)CC(O)CCCCCCCCC)COC(=O)[C@H]([C@H](O)CCl)NC(=O)[C@H]([C@H](O)C(=O)O)NC1=O` (stereo partly drawn) [Pseudomycin B′, pseudomycin B′] (X2-S[dDab]DK[Dab][aThr][Dhb][Asp(3S-OH)][Thr(4-Cl)]; ester 1-C), the minimum inhibitory concentration (MIC) in the experiment with Aspergillus fumigatus is greater than 20 µg/mL; against C. parapsilosis, 10 µg/mL (≈ 8.48 µM); against Candida albicans, 10 µg/mL (≈ 8.48 µM); in the experiment on Cryptococcus neoformans it was 1.25 µg/mL (≈ 1.06 µM); with Histoplasma capsulatum, 1.25-5.0 μ/ml.
